In ChEMBL document CHEMBL6109159, “Discovery of a Potent and Selective Protein Arginine Methyltransferase 5 (PRMT5) PROTAC Degrader” (J Med Chem, 2025):
Active and inactive are the calls of the source. The calls are words filed in the database; no cut-off is given here.

Key:
[1] = biological target: T1, von Hippel-Lindau disease tumor suppressor/Protein arginine N-methyltransferase 5 (Homo sapiens, UniProt O14744+P40337); assay: PROTAC activity at PRMT5/VHL in human MDA-MB-468 cells assessed as relative protein level at 5 uM measured after 24 hrs by Western blot analysis; assay type: cell-based
[2] = biological target: T2, von Hippel-Lindau disease tumor suppressor/Methylosome protein WDR77 (Homo sapiens, UniProt Q9BQA1+P40337); assay: PROTAC activity at MEP50/VHL in human MDA-MB-468 cells assessed as relative protein level at 0.5 uM measured after 24 hrs by Western blot analysis; assay type: cell-based
[3] = biological target: T1, von Hippel-Lindau disease tumor suppressor/Protein arginine N-methyltransferase 5; assay: PROTAC activity at PRMT5/VHL in human MDA-MB-468 cells assessed as maximal degradation measured after 72 hrs by Western blot analysis relative to control; assay type: cell-based
[4] = biological target: T2, von Hippel-Lindau disease tumor suppressor/Methylosome protein WDR77; assay: PROTAC activity at MEP50/VHL in human MDA-MB-468 cells assessed as degradation at 2 uM by Western blot analysis; assay type: cell-based; settings: time 3-48 hrs
[5] = biological target: Protein arginine N-methyltransferase 5 (Homo sapiens, UniProt O14744); assay: Inhibition of PRMT5 (unknown origin) using S-adenosylmethionine (SAM) using as substrate preincubated for 30 mins followed by substrate addition measured after 60 mins by microplate reader
[6] = biological target: T1, von Hippel-Lindau disease tumor suppressor/Protein arginine N-methyltransferase 5; assay: PROTAC activity at PRMT5/VHL in human MDA-MB-468 cells assessed as degradation pretreated with GSKi (EPZ015666) followed by treated at 5 uM of compound after 24 hrs by Western blot analysis; assay type: cell-based
[7] = biological target: T1, von Hippel-Lindau disease tumor suppressor/Protein arginine N-methyltransferase 5; assay: PROTAC activity at PRMT5/VHL in human MDA-MB-468 cells assessed as degradation pretreated with VHL-1 followed by treated at 5 uM of compound after 24 hrs by Western blot analysis; assay type: cell-based
[8] = biological target: T1, von Hippel-Lindau disease tumor suppressor/Protein arginine N-methyltransferase 5; assay: PROTAC activity at PRMT5/VHL in human MDA-MB-468 cells assessed as degradation pretreated with MG132 proteasome inhibitor followed by treated at 5 uM of compound after 24 hrs by Western blot analysis; assay type: cell-based
[9] = biological target: T1, von Hippel-Lindau disease tumor suppressor/Protein arginine N-methyltransferase 5; assay: PROTAC activity at PRMT5/VHL in VHL KO human MDA-MB-468 cells assessed as degradation at 0.5 uM of compound after 24 hrs by Western blot analysis; assay type: cell-based
[10] = biological target: T1, von Hippel-Lindau disease tumor suppressor/Protein arginine N-methyltransferase 5; assay: PROTAC activity at PRMT5/VHL in VHL KO human MDA-MB-468 cells assessed as degradation at 5 uM of compound after 24 hrs by Western blot analysis; assay type: cell-based
[11] = biological target: T2, von Hippel-Lindau disease tumor suppressor/Methylosome protein WDR77; assay: PROTAC activity at MEP50/VHL in VHL KO human MDA-MB-468 cells assessed as degradation at 0.5 uM of compound after 24 hrs by Western blot analysis; assay type: cell-based
[12] = biological target: T2, von Hippel-Lindau disease tumor suppressor/Methylosome protein WDR77; assay: PROTAC activity at MEP50/VHL in VHL KO human MDA-MB-468 cells assessed as degradation at 5 uM of compound after 24 hrs by Western blot analysis; assay type: cell-based
[13] = biological target: T1, von Hippel-Lindau disease tumor suppressor/Protein arginine N-methyltransferase 5; assay: PROTAC activity at PRMT5/VHL in human MDA-MB-468 cells assessed as downregulation of PRMT5 at 2 uM of compound after 24 hrs by mass spectrometry (MS)-based global proteomic study; assay type: cell-based
[14] = test system: MDA-MB-468; assay: Inhibition of sDMA (symmetric dimethylarginine) level in human MDA-MB-468 cells at 2 uM measured after 7 days by Western blot analysis; assay type: functional, cell-based; settings: time 7.0 day
[15] = biological target: T1, von Hippel-Lindau disease tumor suppressor/Protein arginine N-methyltransferase 5; assay: PROTAC activity at PRMT5/VHL in human MDA-MB-453 cells assessed as degradation at 0.5 uM after 3 days by Western blot analysis; assay type: cell-based; settings: time 3.0 day
[16] = test system: MDA-MB-468; assay: Inhibition of colony formation in human MDA-MB-468 cells incubated for 16 days by crystal violet staining based analysis; assay type: functional, cell-based; settings: time 16.0 day
[17] = biological target: T1, von Hippel-Lindau disease tumor suppressor/Protein arginine N-methyltransferase 5; assay: PROTAC activity at PRMT5/VHL in human MCF7 cells assessed as degradation at 0.5 uM after 3 days by Western blot analysis; assay type: cell-based; settings: time 3.0 day
[18] = biological target: T2, von Hippel-Lindau disease tumor suppressor/Methylosome protein WDR77; assay: PROTAC activity at MEP50/VHL in human MCF7 cells assessed as degradation at 0.5 uM after 3 days by Western blot analysis; assay type: cell-based; settings: time 3.0 day
[19] = biological target: T1, von Hippel-Lindau disease tumor suppressor/Protein arginine N-methyltransferase 5; assay: PROTAC activity at PRMT5/VHL in human MDA-MB-231 cells assessed as degradation at 5 uM after 3 days by Western blot analysis; assay type: cell-based; settings: time 3.0 day
[20] = biological target: T2, von Hippel-Lindau disease tumor suppressor/Methylosome protein WDR77; assay: PROTAC activity at MEP50/VHL in human MDA-MB-231 cells assessed as degradation at 0.5 uM after 3 days by Western blot analysis; assay type: cell-based; settings: time 3.0 day
[21] = biological target: T2, von Hippel-Lindau disease tumor suppressor/Methylosome protein WDR77; assay: PROTAC activity at MEP50/VHL in human MDA-MB-231 cells assessed as degradation at 5 uM after 3 days by Western blot analysis; assay type: cell-based; settings: time 3.0 day
[22] = biological target: T1, von Hippel-Lindau disease tumor suppressor/Protein arginine N-methyltransferase 5; assay: PROTAC activity at PRMT5/VHL in human MDA-MB-453 cells assessed as degradation at 5 uM after 3 days by Western blot analysis; assay type: cell-based; settings: time 3.0 day
[23] = biological target: T2, von Hippel-Lindau disease tumor suppressor/Methylosome protein WDR77; assay: PROTAC activity at MEP50/VHL in human MDA-MB-453 cells assessed as degradation at 0.5 uM after 3 days by Western blot analysis; assay type: cell-based; settings: time 3.0 day
[24] = biological target: T2, von Hippel-Lindau disease tumor suppressor/Methylosome protein WDR77; assay: PROTAC activity at MEP50/VHL in human MDA-MB-453 cells assessed as degradation at 5 uM after 3 days by Western blot analysis; assay type: cell-based; settings: time 3.0 day
[25] = test system: MDA-MB-453; assay: Growth inhibition of human MDA-MB-453 cells assessed as cell viability measured after 5 days by CCK-8 assay; assay type: functional, cell-based; settings: time 5.0 day
[26] = test system: MDA-MB-231; assay: Growth inhibition of human MDA-MB-231 cells assessed as cell viability measured after 5 days by CCK-8 assay; assay type: functional, cell-based; settings: time 5.0 day
[27] = test system: HCC70; assay: Growth inhibition of human HCC70 cells assessed as cell viability measured after 5 days by CCK-8 assay; assay type: functional, cell-based; settings: time 5.0 day
[28] = biological target: T1, von Hippel-Lindau disease tumor suppressor/Protein arginine N-methyltransferase 5; assay: PROTAC activity at PRMT5/VHL in human PC-3 cells assessed as degradation at 0.004 to 2.5 uM after 7 hrs by Western blot analysis; assay type: cell-based; settings: dose 0.004-2.5 µM
[29] = test system: PC-3; assay: Inhibition of colony formation in human PC-3 cells incubated for 10 days by crystal violet staining based analysis; assay type: functional, cell-based; settings: time 10.0 day
[30] = test system: PC-3; assay: Inhibition of sDMA (symmetric dimethylarginine) level in human PC-3 cells at 2 uM measured after 7 days by Western blot analysis; assay type: functional, cell-based; settings: time 7.0 day
[31] = biological target: T1, von Hippel-Lindau disease tumor suppressor/Protein arginine N-methyltransferase 5; assay: PROTAC activity at PRMT5/VHL in human MCF-10A cells assessed as degradation at 0.5 to 5 uM after 3 days by Western blot analysis; assay type: cell-based; settings: dose 0.5-5 µM, time 3.0 day
[32] = test system: MCF-10A; assay: PROTAC activity at MEP50/VHL in human MCF-10A cells assessed as degradation at 0.5 to 5 uM after 3 days by Western blot analysis; assay type: cell-based; settings: dose 0.5-5 µM, time 3.0 day
[33] = test system: MCF-10A; assay: Cytotoxicity against human MCF10A cells assessed as cell viability up to 15 uM measured after 5 days by CCK-8 assay; assay type: toxicity, cell-based; settings: 120 h, time 5 day
[34] = Plasma concentration in Swiss albino mouse at 50 mg/kg, ip measured after 8 hrs by LC-MS/MS analysis; assay type: ADME, organism-based
[35] = PROTAC activity at PRMT5/VHL in human PNT2 cells assessed as degradation at 0.5 to 5 uM after 3 days by Western blot analysis; settings: dose 0.5-5 µM, time 3.0 day

T1 sequence (O14744 whole entry, looked up): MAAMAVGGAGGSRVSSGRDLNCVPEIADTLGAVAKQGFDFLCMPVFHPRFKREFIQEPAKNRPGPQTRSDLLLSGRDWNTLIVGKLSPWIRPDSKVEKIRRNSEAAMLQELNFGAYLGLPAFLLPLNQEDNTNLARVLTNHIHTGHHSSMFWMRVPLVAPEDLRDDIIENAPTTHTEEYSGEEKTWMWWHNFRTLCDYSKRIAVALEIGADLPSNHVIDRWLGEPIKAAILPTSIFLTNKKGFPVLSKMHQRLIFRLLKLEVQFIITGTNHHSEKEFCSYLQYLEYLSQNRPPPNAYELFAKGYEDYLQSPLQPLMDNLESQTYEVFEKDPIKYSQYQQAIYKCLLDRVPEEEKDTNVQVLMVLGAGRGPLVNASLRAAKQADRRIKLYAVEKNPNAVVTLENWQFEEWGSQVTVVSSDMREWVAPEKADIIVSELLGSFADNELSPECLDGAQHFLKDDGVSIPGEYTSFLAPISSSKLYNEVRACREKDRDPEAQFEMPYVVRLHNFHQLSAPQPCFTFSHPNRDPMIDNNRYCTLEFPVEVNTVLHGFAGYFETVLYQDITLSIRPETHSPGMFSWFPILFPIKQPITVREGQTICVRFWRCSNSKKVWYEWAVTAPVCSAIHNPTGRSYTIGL
T1 sequence (P40337 whole entry, looked up): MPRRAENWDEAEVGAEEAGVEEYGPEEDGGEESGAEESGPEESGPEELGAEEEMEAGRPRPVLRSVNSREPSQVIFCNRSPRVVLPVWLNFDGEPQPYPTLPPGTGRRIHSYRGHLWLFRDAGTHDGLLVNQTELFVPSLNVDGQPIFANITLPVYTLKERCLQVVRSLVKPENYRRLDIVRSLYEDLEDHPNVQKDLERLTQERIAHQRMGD
T2 sequence (P40337 whole entry, looked up): as above
T2 sequence (Q9BQA1 whole entry, looked up): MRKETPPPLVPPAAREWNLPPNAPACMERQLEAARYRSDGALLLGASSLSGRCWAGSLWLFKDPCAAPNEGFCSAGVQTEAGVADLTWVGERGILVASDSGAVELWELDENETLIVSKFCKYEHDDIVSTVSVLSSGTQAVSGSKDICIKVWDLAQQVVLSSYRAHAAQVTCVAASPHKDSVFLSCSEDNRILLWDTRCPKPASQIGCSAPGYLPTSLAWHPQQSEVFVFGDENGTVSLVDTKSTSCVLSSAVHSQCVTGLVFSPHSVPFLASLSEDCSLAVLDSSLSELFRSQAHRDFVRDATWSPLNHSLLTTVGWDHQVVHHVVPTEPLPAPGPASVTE
Chain of Protein arginine N-methyltransferase 5 (O14744 whole entry): as the sequence (O14744 whole entry, looked up) above

Structure (SMILES): Cc1ncsc1-c1ccc([C@H](CC(=O)NCCOCCOCCOCCOCCOCCC(=O)N2CCC(Nc3cc(C(=O)NC[C@H](O)CN4CCc5ccccc5C4)ncn3)CC2)NC(=O)[C@@H]2C[C@@H](O)CN2C(=O)[C@@H](NC(=O)C2(F)CC2)C(C)(C)C)cc1
- Activity [1]: Active
- Activity [2]: Active
- Emax [3]: 86%
- Activity [4]: Time-dependent-effect
- IC50 [5]: 2.1 µM
- Activity [6]: inactive
- Activity [7]: inactive
- Activity [8]: inactive
- Activity [9]: Not active; Complete Rescue Not Observed - Due To Incomplete Vhl Ko
- Activity [10]: Not active; Complete Rescue Not Observed - Due To Incomplete Vhl Ko
- Activity [11]: Not active; Complete Rescue Not Observed - Due To Incomplete Vhl Ko
- Activity [12]: Not active; Complete Rescue Not Observed - Due To Incomplete Vhl Ko
- Activity [13]: Active
- inhibition [14]: Active
- Activity [15]: Active
- Activity [16]: Active
- Activity [17]: Active
- Activity [18]: Active
- Activity [19]: Active
- Activity [20]: Active
- Activity [21]: Active
- Activity [22]: Active
- Activity [23]: Active
- Activity [24]: Active
- growth inhibition (GI) [25]: Active
- growth inhibition (GI) [26]: Active
- growth inhibition (GI) [27]: Active
- Activity [28]: Active
- Activity [29]: Active
- inhibition [30]: Active
- Activity [31]: 100%
- Activity [32]: 100%
- Activity [33]: Non-toxic
- concentration at 8 h [34]: 200 nM
- Activity [35]: 100%
